pIC50: −log10 of the molar value.
target: m-calpain (derived from porcine kidney) (Sus scrofa, UniProt P43367); test: Measurement of inhibitory activity against m-calpain; format: biochemical; details: casein substrate, pH 7.4, 30° C. for 60 minutes; read-out: Enzyme inhibitory activity m-Calpain (IC50)
Sequence (P43367 whole entry): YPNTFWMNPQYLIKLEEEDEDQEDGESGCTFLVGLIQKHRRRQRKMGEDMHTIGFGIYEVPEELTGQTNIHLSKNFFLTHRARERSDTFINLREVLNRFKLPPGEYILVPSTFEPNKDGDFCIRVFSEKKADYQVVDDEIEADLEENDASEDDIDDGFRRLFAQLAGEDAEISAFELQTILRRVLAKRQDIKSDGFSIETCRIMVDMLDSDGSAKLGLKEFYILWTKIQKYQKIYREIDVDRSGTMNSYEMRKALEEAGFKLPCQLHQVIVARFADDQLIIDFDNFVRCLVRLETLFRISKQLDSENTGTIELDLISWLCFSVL
Sequence (P04574 whole entry, further chain): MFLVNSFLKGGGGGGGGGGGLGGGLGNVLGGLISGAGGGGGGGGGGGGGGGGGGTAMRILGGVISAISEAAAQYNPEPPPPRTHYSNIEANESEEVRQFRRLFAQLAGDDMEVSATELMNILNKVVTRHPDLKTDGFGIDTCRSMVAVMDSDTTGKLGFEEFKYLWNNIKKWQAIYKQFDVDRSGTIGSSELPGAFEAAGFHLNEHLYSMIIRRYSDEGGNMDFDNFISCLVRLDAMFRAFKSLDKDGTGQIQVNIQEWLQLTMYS
Description: More specifically, 200 μL of a reaction solution containing 0.5 mg/mL casein, 50 mM Tris-HCl buffer (pH 7.4), 20 mM dithiothreitol and 1.0 nmol μ-calpain (derived from human red blood cells, Cosmo Bio Co., Ltd.) or m-calpain (derived from porcine kidney, Cosmo Bio Co., Ltd.) was added to individual 2.5 μL portions of DMSO solution containing a varying concentration of a test sample in a 96-well plate. Then, 50 μL of 20 mM aqueous calcium chloride was added thereto, and reaction was performed at 30° C. for 60 minutes. 100 μL of the reaction solution was transferred to another 96-well plate, and purified water (50 μL) and 50% aqueous solution (100 μL) of Protein Assay Dye Reagent (available from Bio-Rad Laboratories, Inc.; catalogue No. 500-600) were added thereto. […] The absorbance of a reaction mixture prepared in the same manner as mentioned above, except that a DMSO solution containing no sample was used as a control value; and the absorbance of a reaction mixture prepared in the same manner as mentioned above, except that a 1 mM aqueous EDTA solution (50 μL) was used in place of 20 mM aqueous calcium chloride, was used as a blank value.

Structure (SMILES) | pIC50
COCCOCCOCCOCCOC(=O)N[C@@H](CC(C)C)C(=O)N[C@@H](Cc1ccccc1)C(=O)C(=O)NC1CC1 [Compound 19, ((1S)-1-((((1S)-1-Benzyl-2,3-dioxo-3-(cyclopropylamino)propyl)amino)carbonyl)-3-methylbutyl)carbamic acid 11-methoxy-3,6,9-trioxaundecanyl ester] | 6.77
COCCOCCOCCOCCOCCOC(=O)N[C@@H](CC(C)C)C(=O)N[C@@H](Cc1ccccc1)C(=O)C(=O)NC1CC1 [Compound 20, ((1S)-1-((((1S)-1-Benzyl-2,3-dioxo-3-(cyclopropylamino)propyl)amino)carbonyl)-3-methylbutyl)carbamic acid 14-methoxy-3,6,9,12-tetraoxatetradecanyl ester] | 6.72

system: not given; test: not given; details: not given

Structure (SMILES) | melting point
CCNC(=O)C(=O)[C@H](Cc1ccccc1)NC(=O)[C@H](CC(C)C)NC(=O)OCCOC [Compound 1, ((1S)-1-((((1S)-1-Benzyl-2,3-dioxo-3-(ethylamino)propyl)amino)carbonyl)-3-methylbutyl) carbamic acid 2-methoxyethyl ester] | 138 to 138.3 °C
CCNC(=O)C(=O)[C@H](Cc1ccccc1)NC(=O)[C@H](CC(C)C)NC(=O)O[C@H]1CCOC1 [Compound 2, ((1S)-1-((((1S)-1-Benzyl-2,3-dioxo-3-(ethylamino)propyl)amino)carbonyl)-3-methylbutyl)carbamic acid (3S)-tetrahydrofuran-3-yl ester] | 158.9 to 160.7 °C
CCNC(=O)C(=O)[C@H](Cc1ccccc1)NC(=O)[C@H](CC(C)C)NC(=O)OC1CCOCC1 [Compound 3, ((1S)-1-((((1S)-1-Benzyl-2,3-dioxo-3-(ethylamino)propyl)amino)carbonyl)-3-methylbutyl)carbamic acid tetrahydro-4H-pyran-4-yl ester] | 140 to 141.8 °C
COCCOC(=O)N[C@@H](CC(C)C)C(=O)N[C@@H](Cc1ccccc1)C(=O)C(=O)NC1CC1 [Compound 4, ((1S)-1-((((1S)-1-Benzyl-2,3-dioxo-3-(cyclopropylamino)propyl)amino)carbonyl)-3-methylbutyl)carbamic acid 2-methoxyethyl ester] | 112.4 to 113.5 °C
CC(C)C[C@H](NC(=O)O[C@H]1CCOC1)C(=O)N[C@@H](Cc1ccccc1)C(=O)C(=O)NC1CC1 [Compound 5, ((1S)-1-((((1S)-1-Benzyl-3-(cyclopropylamino)-2,3-dioxopropyl)amino)carbonyl)-3-methylbutyl)carbamic acid (3S)-tetrahydrofuran-3-yl ester] | 169.2 to 170.5 °C
CC(C)C[C@H](NC(=O)OC1CCOCC1)C(=O)N[C@@H](Cc1ccccc1)C(=O)C(=O)NC1CC1 [Compound 6, ((1S)-1-((((1S)-1-Benzyl-3-cyclopropylamino-2,3-dioxopropyl)amino)carbonyl)-3-methylbutyl)carbamic acid tetrahydro-4H-pyran-4-yl ester] | 137 to 138.2 °C
CCCNC(=O)C(=O)[C@H](Cc1ccccc1)NC(=O)[C@H](CC(C)C)NC(=O)OCCOC [Compound 7, ((1S)-1-((((1S)-1-Benzyl-2,3-dioxo-3-(propylamino)propyl)amino)carbonyl)-3-methylbutyl) carbamic acid 2-methoxyethyl ester] | 108.8 to 109.9 °C
COCCOC(=O)N[C@@H](CC(C)C)C(=O)N[C@@H](Cc1ccccc1)C(=O)C(=O)NC1CCC1 [Compound 8, ((1S)-1-((((1S)-1-Benzyl-2,3-dioxo-3-(cyclobutylamino)propyl)amino)carbonyl)-3-methylbutyl) carbamic acid 2-methoxyethyl ester] | 114.2 to 115.3 °C
CCCCNC(=O)C(=O)[C@H](Cc1ccccc1)NC(=O)[C@H](CC(C)C)NC(=O)OCCOC [Compound 9, ((1S)-1-((((1S)-1-Benzyl-3-butylamino-2,3-dioxopropyl)amino)carbonyl)-3-methylbutyl) carbamic acid 2-methoxyethyl ester] | 94 to 95.2 °C
COCCOC(=O)N[C@@H](CC(C)C)C(=O)N[C@@H](Cc1ccccc1)C(=O)C(=O)NCC(F)(F)F [Compound 10, ((1S)-1-((((1S)-1-Benzyl-2,3-dioxo-3-(2,2,2-trifluoroethylamino)propyl)amino)carbonyl)-3-methylbutyl) carbamic acid 2-methoxyethyl ester] | 152.5 to 153.9 °C
COCCOC(=O)N[C@@H](CC(C)C)C(=O)N[C@@H](Cc1ccccc1)C(=O)C(=O)NC1Cc2ccccc2C1 [Compound 11, ((1S)-1-((((1S)-1-Benzyl-2,3-dioxo-3-(2-indanylamino)propyl)amino)carbonyl)-3-methylbutyl)carbamic acid 2-methoxyethyl ester] | 141.9 to 143.5 °C
COCCNC(=O)C(=O)[C@H](Cc1ccccc1)NC(=O)[C@H](CC(C)C)NC(=O)OCCOC [Compound 12, ((1S)-1-((((1S)-1-Benzyl-2,3-dioxo-3-(2-methoxyethylamino)propyl)amino)carbonyl)-3-methylbutyl) carbamic acid 2-methoxyethyl ester] | 127 to 127.9 °C
CCNC(=O)C(=O)[C@H](CCc1ccccc1)NC(=O)[C@H](CC(C)C)NC(=O)OCCOC [Compound 13, ((1S)-1-((((1S)-2,3-Dioxo-3-ethylamino-1-(phenylethyl)propyl)amino)carbonyl)-3-methylbutyl)carbamic acid 2-methoxyethyl ester] | 119.1 to 120.4 °C
CCNC(=O)C(=O)[C@H](CCc1ccccc1)NC(=O)[C@H](CC(C)C)NC(=O)O[C@H]1CCOC1 [Compound 14, ((1S)-1-((((1S)-2,3-Dioxo-3-ethylamino-1-(phenylethyl)propyl)amino)carbonyl)-3-methylbutyl)carbamic acid (3S)-tetrahydrofuran-3-yl ester] | 111.9 to 114.5 °C
COCCOC(=O)N[C@@H](CC(C)C)C(=O)N[C@@H](CCc1ccccc1)C(=O)C(=O)NC1CC1 [Compound 15, ((1S)-1-((((1S)-2,3-Dioxo-3-cyclopropylamino-1-(phenylethyl)propyl)amino)carbonyl)-3-methylbutyl)carbamic acid 2-methoxyethyl ester] | 109.7 to 111.1 °C
CC(C)C[C@H](NC(=O)O[C@H]1CCOC1)C(=O)N[C@@H](CCc1ccccc1)C(=O)C(=O)NC1CC1 [Compound 16] | 115.8 to 116.2 °C
COCCOCCOCCOCCOC(=O)N[C@@H](CC(C)C)C(=O)N[C@@H](Cc1ccccc1)C(=O)C(=O)NC1CC1 [Compound 19, ((1S)-1-((((1S)-1-Benzyl-2,3-dioxo-3-(cyclopropylamino)propyl)amino)carbonyl)-3-methylbutyl)carbamic acid 11-methoxy-3,6,9-trioxaundecanyl ester] | 97.5 to 98.5 °C
COCCOCCOCCOCCOCCOC(=O)N[C@@H](CC(C)C)C(=O)N[C@@H](Cc1ccccc1)C(=O)C(=O)NC1CC1 [Compound 20, ((1S)-1-((((1S)-1-Benzyl-2,3-dioxo-3-(cyclopropylamino)propyl)amino)carbonyl)-3-methylbutyl)carbamic acid 14-methoxy-3,6,9,12-tetraoxatetradecanyl ester] | 98.5 to 99.9 °C
COCCOC(=O)N[C@@H](CC(C)C)C(=O)N[C@@H](CC(C)C)C(=O)C(=O)NCCOc1ccccc1 [Compound 21, ((1S)-1-((((1S)-2,3-Dioxo-1-(2-methylpropyl)-3-(2-phenoxyethyl)aminopropyl)amino)carbonyl)-3-methylbutyl) carbamic acid 2-methoxyethyl ester] | 99.7 to 100.5 °C
COCCOCCOC(=O)N[C@@H](CC(C)C)C(=O)N[C@@H](CC(C)C)C(=O)C(=O)NCCOc1ccccc1 [Compound 22, ((1S)-1-((((1S)-2,3-Dioxo-1-(2-methylpropyl)-3-(2-phenoxyethyl)aminopropyl)amino)carbonyl)-3-methylbutyl) carbamic acid 5-methoxy-3-oxapentyl ester] | 53.3 to 54.1 °C
